We go through 18 compounds from patent publication EP1325958A1, “Genetic sequence coding for creatinine deiminase, and its use” (CampusGen GmbH, priority 2002, dated 2003).

The first assay relates to Creatinin-Deiminase (EC 3.5.4.21) aus Tissierella creatinini, heterolog in E. coli exprimiert, gereinigt, SEQ ID NO:2. The assay is described as follows: Interference studies: substances added to the standard creatinine deiminase test, enzyme activity determined. In kind it is biochemical. Particulars: statement in the text referring to Tabelle 1. On the procedure:
Dieses erfindungsgemäße Verfahren ermöglicht die Bestimmung von Creatinin bei Einsatz von nur zwei Enzymen, die in einer Mess- bzw. Indikatorreaktion eingesetzt werden, wobei keine komplizierten Hilfsreaktionen erforderlich sind. Wie in Tabelle 1 gezeigt ist, weist die erfindungsgemäße Creatinin-Deiminase eine außerordentlich hohe Spezifität für sein Substrat Creatinin auf. Das Enzym zeigt insbesondere mit Cytosin bis zu einer Konzentration von […] keine Interferenz in der Reaktion. Somit ermöglicht die erfindungsgemäße Creatinin-Deiminase eine Bestimmung von Creatinin auch in Gegenwart anderer Substrate, insbesondere Cytosin ohne das Auftreten einer Interferenz, die das Messergebnis verfälschen würde. Tabelle 1:
Die Aktivität des gereinigten rekombinanten Enzyms wurde durch eine modifizierte enzymatische Methode nach Bergmeyer 1985 (BERGMEYER, H.U. (1985). Methods of enzymatic analysis 8: 488-507) bestimmt. Sie beruht auf der Messung des während der Creatinindeiminierung freigesetzten Ammoniaks in einem gekoppelten optischen Test durch Verbrauch von NADH bei 340 nm bzw. 365 nm. Der Reaktionsansatz enthielt folgende Konzentrationen in einem Endvolumen von 0,6 ml: TEA-Puffer 0,11 mol/l, pH 8,6; Creatinin 1,5 mmol/l; ADP 1,11 mmol/l; DTE 1 mmol/l; NADH 0,11 mmol/l; 2-Oxoglutarat 11 mmol/l; Glutamat-Dehydrogenase 8 U/ml. Nach Inkubation des Reaktionsansatzes (5 min bei 37°C) in einer Küvette im Photometer wurde die Reaktion mit 0,01 ml des gereinigten rekombinanten Enzyms gestartet und die Extinktionsabnahme bei 340 nm beobachtet. Eine Enzymeinheit katalysiert den Abbau von 1 µmol Creatinin/min bei 37°C.
Es wurden Interferenzstudien mit der gereinigten heterolog exprimierten Creatinin-Deiminase mit verschiedenen in Seren relevanten Substanzen durchgeführt. Diese wurden zum Standardtestansatz gegeben und jeweils die Aktivität der Creatinin-Deiminase bestimmt. In Tabelle 1 sind die getesteten relevanten Substanzen aufgelistet, die in den angegebenen Konzentrationen keine Interferenzen mit dem Enzymtest zeigten. Die rekombinante Creatinin-Deiminase zeigte eine außerordentliche Substratspezifität bei Zusatz der in Tabelle 1 angegebenen Substanzen.
As for `Nc1cc[nH]c(=O)n1` [Cytosin], the “keine Interferenz in der Reaktion bis zu einer Konzentration von” value was 2000 mg/mL.

The assay is the same for the next values; noted with them: substance added to the standard test (Creatinin 1,5 mmol/l, 37°C, pH 8,6); no interference with the enzyme test at the stated concentration.
Turning to `N[C@@H](Cc1c[nH]cn1)C(=O)O` [Histidin], the “Keine Interferenzen bis zu einer Konzentration von” value was 2250 mg/L.

Regarding `COc1cc(Cc2cnc(N)nc2N)cc(OC)c1OC` [Trimethoprim], the “Keine Interferenzen bis zu einer Konzentration von” value turned out to be 46 mg/L.

As for `NCC(O)c1cccc(O)c1` (centres unmarked) [Norfenefrin], the “Keine Interferenzen bis zu einer Konzentration von” value was 1,5 mg/l.

For `O=C1O[C@H]([C@@H](O)CO)C(O)=C1O` [Ascorbinsäure], the “Keine Interferenzen bis zu einer Konzentration von” value was determined as 200 mg/L.

Take `Nc1cc[nH]c(=O)n1` [Cytosin]: the “Keine Interferenzen bis zu einer Konzentration von” value was 2000 mg/L.

`NS(=O)(=O)c1cc(C(=O)O)c(NCc2ccco2)cc1Cl` [Fuoresemid]: the “Keine Interferenzen bis zu einer Konzentration von” value worked out at 4433 mg/L.

On to `CNC[C@H](O)c1ccc(O)c(O)c1` [Epinephrin], for which the “Keine Interferenzen bis zu einer Konzentration von” value is on record as 0,05 mg/l.

For `C[C@H](CS)C(=O)N1CCC[C@H]1C(=O)O` [Captopril], the “Keine Interferenzen bis zu einer Konzentration von” value worked out at 83 mg/L.

As for `O=C(O)C(=O)O` [Oxalsäure], the “Keine Interferenzen bis zu einer Konzentration von” value came to 400 mg/L.

As for `CN(CC(=O)O)C(=N)N` [Creatin], the “Keine Interferenzen bis zu einer Konzentration von” value was determined as 2000 mg/L.

Take `CC(C)=O` [Aceton]: the “Keine Interferenzen bis zu einer Konzentration von” value came to 2000 mg/L.

As to `O=C(O)c1cc(N=Nc2ccc(S(=O)(=O)Nc3ccccn3)cc2)ccc1O` [Salazosulfapyridin], the “Keine Interferenzen bis zu einer Konzentration von” value worked out at 550 mg/L.

In the case of `CN[C@H](CC(C)C)C(=O)N[C@H]1C(=O)N[C@@H](CC(N)=O)C(=O)N[C@H]2C(=O)N[C@H]3C(=O)N[C@H](C(=O)N[C@H](C(=O)O)c4cc(O)cc(O)c4-c4cc3ccc4O)[C@H](O)c3ccc(c(Cl)c3)Oc3cc2cc(c3O[C@@H]2O[C@H](CO)[C@@H](O)[C@H](O)[C@H]2O[C@H]2C[C@](C)(N)[C@H](O)[C@H](C)O2)Oc2ccc(cc2Cl)[C@H]1O` [Vancomycin], the “Keine Interferenzen bis zu einer Konzentration von” value is 288 mg/L.

Take `OC[C@H]1OC(O)[C@H](O)[C@@H](O)[C@@H]1O` (some centres unmarked) [Glukose]: the “Keine Interferenzen bis zu einer Konzentration von” value stood at 1100 mg/L.

`CC(N)(Cc1ccc(O)c(O)c1)C(=O)O` (stereo not drawn) [α-Methyl-Dopa]: the “Keine Interferenzen bis zu einer Konzentration von” value came out at 107 mg/L.

Consider `Cc1cc(NS(=O)(=O)c2ccc(N)cc2)no1` [Sulfatmethoxazol], for which the “Keine Interferenzen bis zu einer Konzentration von” value was 500 mg/L.

As for `Nc1nc(=O)[nH]cc1F` [5-Fluorocytosin], the “Keine Interferenzen bis zu einer Konzentration von” value is 1000 mg/L.

A further assay has the same test system. Nature of the assay: Substrate saturation of purified recombinant creatinine deiminase (coupled optical test, Lineweaver-Burk plot). In kind it is biochemical. The note with it: purified recombinant enzyme, 0,06 µg per test, coupled optical test, 37°C, TEA-Puffer pH 8,6, read-out: Km-Wert für Creatinin. An excerpt:
Abb. 1: Biosynthese von Creatin und Creatinin im menschlichen Körper. Die Synthese erfolgt in mehreren Schritten in verschiedenen Körperorganen. Abb. 2: Enzymatische Bestimmung von Creatinin mit Creatininase, Creatin-Kinase, Pyruvat-Kinase und Laktatdehydrogenase. Creatinin wird katalysiert durch Creatininase und Creatin-Kinase gekoppelt mit Pyruvatbildung. Das Pyruvat wird in der Indikatorreaktion in Gegenwart von Laktatdehydrogenase zu Laktat umgesetzt und dabei eine Extinktionsabnahme bei 340 nm von NADH gemessen. Abb.3: Enzymatische Bestimmung von Creatinin mit Creatininase, Creatinase, Sarcosinoxidase und Peroxidase. Creatinin wird katalysiert durch Creatininase, Creatinase und Sarcosinoxidase zu Glycin, Formaldehyd und H2O2 abgebaut. Das H2O2 wird in der Indikatorreaktion mittels Peroxidase anhand der Extinktionszunahme bei 510 oder 546 nm bestimmt. Abb.4: Enzymatische Bestimmung von Creatinin mit Creatinin-Deiminase und Glutamatdehydrogenase. Creatinin wird katalysiert durch Creatinin-Deiminase zu N-Methylhydantoin und Ammoniak abgebaut. Der Ammoniak wird mit α-Ketoglutarat und NADH mittels Glutamat-Dehydrogenase zu Glutamat umgesetzt und photometrisch die Extinktionsabnahme durch Verbrauch an NADH bei 340 bzw. 365 nm gemessen. Abb. 5: Schematische Darstellung des pBluescriptSK^+-Vektors. Gezeigt sind einige Restriktionsschnittstellen. […]
As a reminder, the Km is the substrate concentration at which the rate is half of its maximum. Consider `CN1CC(=O)N=C1N` [Creatinin], for which the Km worked out at 1100 µM.

Staying with this assay, now noted: substrate Creatinin, this enzyme preparation, Proteinkonzentration: 6 µg/ml --> 1467 U/mg.
For the compound `CN1CC(=O)N=C1N` [Creatinin], the Vmax was 8,8 U/ml.
